These results are taken from the SangsterLogP compilation.

The nature of data set [1]: method code SF-GLC, from DOI: 10.1002/jps.2600641120, PMID: 1195116.
The nature of data set [2]: method code SF-AS, from DOI: 10.1016/0006-2952(65)90227-3, PMID: 14322976. Conditions: pH 6.8.
A short description of data set [3]: method code SF-CR+AS, from Korenman, Y. (1973). Extraction of guaiacol from aqueous solutions. Zh. Prikl. Khim., 46(6)1391-1394. Conditions: pH 2.0.
Experiment in data set [4]: not given
This is another data set of the same source.

Data set [5] can be described thus: from Büchel, H.; Draber, W.; Trebst, A.; Pistorius, E. (1966). Inhibition of photosynthetic reactions in isolated chloroplasts by benzimidazole-type herbicides and their structure-activity relation, …. Conditions: pH 7.0.
Experiment in data set [6]: not given
The source holds these as a separate data set.

A short description of data set [7]: method code SF, from DOI: 10.1016/0043-1354(79)90201-x.
Experiment in data set [8]: not given
This is another data set of the same source.

Data set [9] is described as follows: method code SF-AS, from DOI: 10.1016/s0022-3565(25)24763-2, PMID: 2019981. To be noted: pH 7.4.
For data set [10] the following is noted: pH 5.6.
The nature of data set [11]: method code SF-AS, from DOI: 10.1016/0045-6535(84)90003-1.
Data set [12] is described as follows: method code SF-GLC, from DOI: 10.1021/je970020p.
Experiment in data set [13]: not given
The source holds these as a separate data set.

The nature of data set [14]: method code SF-HPLC, from DOI: 10.1016/s0045-6535(01)00105-9, PMID: 11695583.
Data set [15] is described as follows: method code SF, from DOI: 10.1016/j.ejps.2014.11.002, PMID: 25447745. Conditions: pH 7.4.
Experiment in data set [16]: not given
This is another data set of the same source.

Data set [17] can be described thus: method code SF-AS, from DOI: 10.1016/0006-2952(74)90620-0, PMID: 4822742. Conditions: pH 7.4.
Data set [18] is described as follows: method code SF, from DOI: 10.1248/yakushi1947.93.11_1452, PMID: 4273378.
Data set [19] is described as follows: method code SF-GLC, from DOI: 10.1016/s0021-9673(00)92516-0.
The nature of data set [20]: method code SF-AS, from Halmekoski, J.; Hannikainen, H. (1964). Rm values of hydroxy-substituted benzoic acids and partition coefficients of the acids between water and aliphatic alcohols. Suomen Kemist. B, 37, 221-226.
Data set [21] can be described thus: method code SF-GLC,RC, from DOI: 10.1016/0048-3575(73)90050-3.
Data set [22] is described as follows: method code SF, from DOI: 10.1021/jm00307a001, PMID: 5637185.
The nature of data set [23]: method code SF, from DOI: 10.1016/s0960-894x(00)80094-3. Conditions: pH 7.4.
Experiment in data set [24]: not given
This is another data set of the same source.

Data set [25] is described as follows: method code SF, from PMID: 8265709. Conditions: pH 7.4.
Experiment in data set [26]: not given
This is another data set of the same source.

Data set [27] can be described thus: method code SF, from DOI: 10.1016/0005-2744(69)90103-x, PMID: 4387594.
A short description of data set [28]: method code SF-TN, from DOI: 10.1085/jgp.71.1.93, PMID: 621494.
A short description of data set [29]: method code G-HPLC, from He, Y.; Zhao, Y.; Wang, L.; An, F.; Mo, H.; Yang, K.; Liu, Y.; Yu, G.; Xu, X. (1994). Determination of n-octanol/water partition coefficient of organic compound. Huanjing Huaxue, 13(3)195-197.
Experiment in data set [30]: not given
The source holds these as a separate data set.

Data set [31] is described as follows: method code SF-RI, from Korenman, M.; Dobromyslova, M. (1975). Distribution of cellosolves between organic solvents and water. Zh. Prikl. Khim., 48(12)2791-2794.
The nature of data set [32]: method code SF-CR+AS, from Korenman, I.; Kotelyanskaya, B.; Nefedova, A. (1976). Extraction of mononitrophenols from aqueous solutions. Zh. Prikl. Khim., 49(5)1150-1152.
Experiment in data set [33]: not given
This is another data set of the same source.

Experiment in data set [34]: not given
This is another data set of the same source.

Data set [35] can be described thus: method code SF-GLC, from DOI: 10.1021/ac00241a023.
Data set [36] in a line: method code SF-AS, from DOI: 10.1093/ajhp/38.9.1308, PMID: 7282713. To be noted: pH 7.4.
Data set [37] is described as follows: method code SF-CR+AS, from Korenman, I.; Lineva, S.; Tishchenko, M. (1979). The influence of substituents on the extraction of phenols. Russ. J. Phys. Chem., 53(11)1678-1679. To be noted: pH 2.5.
Experiment in data set [38]: not given
This is another data set of the same source.

A short description of data set [39]: from Tehrany, E.A.; Desobry, S. (2005). Comparison between the different calculation methods of partition coefficient of aroma compounds with a difference chemical classes in octanol/water system. ….
A short description of data set [40]: method code SF-AS, from Korenman, I.; Lineva, S.; Gezikova, N. (1978). Extraction of naphthol-sulfonic acids from aqueous solution. Zh. Prikl. Khim., 51(4)869-871.
Experiment in data set [41]: not given
The source holds these as a separate data set.

The nature of data set [42]: method code SF-CR+AS, from Korenman, Y. (1974). Extraction of 2-halophenols from aqueous solutions. Zh. Prikl. Khim., 47(7)1663-1666.
Data set [43] can be described thus: method code SF, from DOI: 10.1016/j.tca.2016.07.020. To be noted: pH 7.4.
A short description of data set [44]: method code SF, from DOI: 10.1016/0014-2999(70)90221-9, PMID: 5440297. Conditions: pH 7.4.
Experiment in data set [45]: not given
The source holds these as a separate data set.

Experiment in data set [46]: not given
The source holds these as a separate data set.

Data set [47] in a line: method code SF-RC, from DOI: 10.1111/j.2042-7158.1987.tb03173.x, PMID: 2886623.
Data set [48] can be described thus: method code SF-AS, from DOI: 10.1016/s0045-6535(98)00368-3.

`C1CCc2nnnn2CC1` gave a logP in data set [1] of 0.14. In turn, `CC(C)(C)OCCO` had a logP of 0.39. Turning to `O=c1ccccc(O)c1`, the logD in [2] turned out to be 0.81. Turning to `COc1ccccc1O`, in data set [3], the logD turned out to be 1.35. Take `Brc1ccc(Br)cc1`: the logP in [4] turned out to be 3.89. `Clc1nc2c(Cl)c(Cl)c(Cl)c(Cl)c2[nH]1`: in data set [5], the logD came out at 4.53.

Take `Cc1cccc(O)c1`: the logP in data set [6] stood at 2.01. Turning to `NC(=O)COCc1ccco1`, in data set [7], the logP is -0.11. Consider `OCCC(F)(F)C(F)(F)C(F)(F)C(F)(F)F`, for which the logP in [8] turned out to be 3.28. In [9], `CCn1cccc(O)c1=O` returned a logD of 0.08. In the case of `NC(=O)c1ccc([N+](=O)[O-])cc1`, in data set [10], the logD worked out at 0.82. Compound `Oc1cc(Cl)cc(Cl)c1Cl` had a logP in data set [11] of 3.84. In turn, `Clc1c(Cl)c(Cl)c(Cl)c(Cl)c1Cl` showed a logP in [12] of 5.74.

For the compound `Oc1c(Br)cc(Br)cc1Br`, the logP in data set [13] turned out to be 4.24. In turn, `Brc1ccc(Br)c(Br)c1Br` registered a logP in data set [14] of 5. In [15], `O=[N+]([O-])O[C@H]1CO[C@H]2[C@@H]1OC[C@H]2O[N+](=O)[O-]` gave a logD of 1.2. With `Oc1cc(Br)ccc1Br`, in data set [16], the logP amounted to 3.22. `O=S1(=O)N=CNc2ccccc21`: in data set [17], the logD was determined as 0.18. With `CNC(=O)c1cccnc1`, in data set [18], the logP was found to be 0. As to `ClCc1ccc(Cl)cc1Cl`, the logP in data set [19] turned out to be 3.82. In [20], `O=C(O)c1cccc(O)c1O` gave a logP of 1.2. In [21], `ClCc1ccccc1` returned a logP of 2.3.

The compound `C=CC(CC)OC(N)=O` (centres undefined) displayed a logP in data set [22] of 1.09. The compound `C[C@@H]1CN(O)C(=O)[C@@H]1N` showed a logD in data set [23] of -3.42. As to `Oc1c(Cl)c(Cl)c(Cl)c(Cl)c1Cl`, the logP in [24] is 4.79. The compound `Cn1c(=O)c2[nH]cnc2n(C)c1=O` registered a logD in data set [25] of -0.18. `Oc1cc(Cl)c(Cl)cc1Cl`: the logP in data set [26] is 3.63. In data set [27], `Nc1cccc(Br)c1` returned a logP of 2.1. In the case of `CCCC(O)C(=O)O` (centres undefined), the logP in data set [28] was found to be 0.45. For `Clc1ccccc1Cl`, the logP in data set [29] came out at 3.34. As to `CSc1ncnc2[nH]cnc12`, the logP in data set [30] was 0.57. In data set [31], `CC(C)OCCO` returned a logP of 0.05. The compound `O=[N+]([O-])c1ccc(O)cc1` yielded a logP in [32] of 1.95. `O=[N+]([O-])/C=C1\NCCCS1` had a logP in [33] of -0.4.

Take `O=C(O)c1ccccc1F`: the logP in [34] was determined as 1.63.

In data set [35], `Brc1cc(Br)c(Br)cc1Br` returned a logP of 5.13. Turning to `Cc1ncsc1CCCl`, the logD in data set [36] turned out to be 2.12.

The compound `Cc1cc(N=O)ccc1O` came in with a logD in [37] of 1.71. In data set [38], `Oc1c(Cl)cc(Cl)c(Cl)c1O` displayed a logP of 3.6. On to `CCCCCC=O`, for which the logP in data set [39] is 1.85. Consider `CC1=C(C(N)=O)SCCO1`, for which, in [40], the logP is -0.22. In [41], `CCCCCO` yielded a logP of 1.41.

Compound `Oc1ccccc1I` displayed a logP in [42] of 2.64. For the compound `NC(=S)c1ccccn1`, the logD in data set [43] was determined as 1.14. Compound `O=C[C@H](O)[C@H](O)[C@H](O)CO` gave a logD in [44] of -2.32. For `Oc1cccc(Cl)c1Cl`, the logP in data set [45] turned out to be 2.98. As to `Clc1ccc(Cl)cc1`, the logP in data set [46] was 3.48.

`OC[C@@H](O)[C@@H](O)[C@H](O)[C@H](O)CO` (racemic): the logP in data set [47] was -2.47.

In turn, `COc1cc(OC)ncn1` had a logP in [48] of 0.96.
